According to US5853731A, “Thromboxane A2 Receptor antagonism and antioxidant action of cinnamophilin and its derivatives, their pharmaceutical compositions and uses” (National Science Council, priority 1997, dated 1998):
Read-outs that look alike come from different tables or passages of the source.

What was measured:
thromboxane B2 formation = experiment: Thromboxane B2 formation caused by arachidonic acid (AA); type: cell-based; details: for Thromboxane B2: caused by AA
cAMP formation = cAMP formation caused by arachidonic acid (AA); type: cell-based; details: for cAMP: caused by AA
guinea-pig trachea = biological target: T1, guinea-pig trachea (Cavia porcellus, UniProt A0A286Y4I8); experiment: Guinea-pig tracheal contraction caused by U-46619; type: cell-based; details: for activity at 10 µM / activity at 30 µM / activity at 100 µM: guinea pig, read-out: Contraction (% of maximal contraction); for activity at 10 µM: cinnamophilin 10 μM; for activity at 30 µM: cinnamophilin 30 μM; for activity at 100 µM: cinnamophilin 100 μM
T1 construct: Tracheae from guinea-pigs were dissected out; from tissue; host or cells: guinea-pig trachea
T1 sequence (A0A286Y4I8 1-347): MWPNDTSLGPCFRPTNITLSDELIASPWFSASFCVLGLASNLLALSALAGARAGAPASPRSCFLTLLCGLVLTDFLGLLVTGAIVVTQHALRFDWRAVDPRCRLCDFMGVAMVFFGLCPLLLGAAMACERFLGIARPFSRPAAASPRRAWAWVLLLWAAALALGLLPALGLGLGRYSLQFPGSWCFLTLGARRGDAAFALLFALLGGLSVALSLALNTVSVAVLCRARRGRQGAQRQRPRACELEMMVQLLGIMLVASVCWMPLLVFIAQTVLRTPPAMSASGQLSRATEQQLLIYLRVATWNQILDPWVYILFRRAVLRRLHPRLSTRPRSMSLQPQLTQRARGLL
Method: B. Guinea-pig tracheal contraction
Tracheae from guinea-pigs were dissected out, transferred to a dish containing Krebs solution and cut transversely between the segments of cartilage. Several of these, usually about 5, were tied together so as to form a chain, which was then mounted in Krebs solution at 37° C., gassed with 95% O2 plus 5% CO2. One end of the chain was attached to a fixed pin in the bath and the other to a transducer connected to a Grass polygraph. Resting tension of each tissue was set at 1 g, Tracheae were allowed to equilibrate for at least 1 hr and washed-periodically.
Cumulative concentration-response curves were obtained by application of various concentrations of spasmogens for 15-18 min at 3 minutes intervals. Tracheal rings were pre-incubated with cinnamophilin for 15 min, then various concentrations of spasmogens were added for 15-18 min at 3 min intervals. Results were expressed as percentage of the maximal control response for each agonist.

rat thoracic aorta = experiment: Rat aortic contraction caused by norepinephrine and high potassium (KCl); type: cell-based, Wistar rat; details: for K+ contraction (%), Tonic: K+ (80 mM); for K+ contraction (%), Tonic / norepinephrine contraction (%), Phrase (phasic) / norepinephrine contraction (%), Tonic: 15 min; for norepinephrine contraction (%), Phrase (phasic) / norepinephrine contraction (%), Tonic: norepinephrine 3 μM
Method: A. Rat Aortic Contraction
Wistar rats of either sex weighing 250 g to 300 g were killed by a blow to the head. The thoracic aorta was isolated and excess fat and connective tissue were removed. Vessels were cut into rings of about 5 mm in length and mounted in organ baths containing 5 ml Krebs solution of the following composition (mM): NaCl (118.4), KCl (4.7), CaCl (1.9), MgSO4 (1.2), KH2 PO4 (1.2), NaHCO3 (25.0) and glucose (11.7). The tissue bath solution was maintained at 37° C. and gassed with 95% O2 :5% CO2 mixture. Two stainless steel hooks were inserted into the aortic lumen, one was fixed while the other was connected to a transducer. Aortae were equilibrated in the medium for 90 min with three changes of Krebs solution and maintained under an optimal tension of 1 g before specific experimental protocols were initiated.
Contraction was recorded isometrically via a force-displacement transducer connected to a Grass polygraph. Aortae were allowed to preincubate for 15 minutes with cinnamophilin before generating the cumulative concentration-response curve with each agonist for 15-30 min at 3 min intervals. Results are expressed as a percentage of the maximal control response for each agonist.
Rat aorta ring were preincubated with lignans or DMSO (0.1% control) at
37° C. for 15 min, then the inducer was added.

[1] = Antioxidation (absorbance at 500 nm, FeSCN method)
Description: (Absorbance at 500 nm, using FeSCN method)

Kb (guinea-pig trachea; against U-46619, read-out: pA2, guinea-pig tracheal contraction induced by U-46619 (converted)): 6.31 µM
activity at 10 µM (guinea-pig trachea; U-46619 0.01 μM): 5.7 ± 2%
activity at 10 µM (guinea-pig trachea; U-46619 0.02 μM): 17.1 ± 4.5%
activity at 10 µM (guinea-pig trachea; U-46619 0.05 μM): 35 ± 5%
activity at 10 µM (guinea-pig trachea; U-46619 0.1 μM): 52 ± 5%
activity at 10 µM (guinea-pig trachea; U-46619 0.2 μM): 70 ± 6%
activity at 10 µM (guinea-pig trachea; U-46619 0.5 μM): 79 ± 4%
activity at 10 µM (guinea-pig trachea; U-46619 1 μM): 85 ± 5%
activity at 10 µM (guinea-pig trachea; U-46619 2 μM): 90 ± 4%
activity at 10 µM (guinea-pig trachea; U-46619 5 μM): 94 ± 4%
activity at 30 µM (guinea-pig trachea; U-46619 0.02 μM): 3%
activity at 30 µM (guinea-pig trachea; U-46619 0.05 μM): 11 ± 3%
activity at 30 µM (guinea-pig trachea; U-46619 0.1 μM): 22 ± 4%
activity at 30 µM (guinea-pig trachea; U-46619 0.2 μM): 35 ± 4%
activity at 30 µM (guinea-pig trachea; U-46619 0.5 μM): 52 ± 5%
activity at 30 µM (guinea-pig trachea; U-46619 1 μM): 67 ± 4%
activity at 30 µM (guinea-pig trachea; U-46619 2 μM): 80 ± 4.5%
activity at 30 µM (guinea-pig trachea; U-46619 5 μM): 88 ± 5%
activity at 30 µM (guinea-pig trachea; U-46619 10 μM): 92 ± 5%
activity at 100 µM (guinea-pig trachea; U-46619 0.05 μM): 0%
activity at 100 µM (guinea-pig trachea; U-46619 0.1 μM): 5 ± 3%
activity at 100 µM (guinea-pig trachea; U-46619 0.2 μM): 15 ± 3%
activity at 100 µM (guinea-pig trachea; U-46619 0.5 μM): 27 ± 4.5%
activity at 100 µM (guinea-pig trachea; U-46619 1 μM): 41 ± 4%
activity at 100 µM (guinea-pig trachea; U-46619 2 μM): 55 ± 5.7%
activity at 100 µM (guinea-pig trachea; U-46619 5 μM): 68 ± 5.7%
activity at 100 µM (guinea-pig trachea; U-46619 10 μM): 78 ± 3%
SMILES: COc1cc(CC(C)C(C)C(=O)c2ccc(O)c(OC)c2)ccc1O (centres unmarked) [Compound 1, cinnamophilin]
TXA2 formation caused by AA (thromboxane B2 formation; 0.03-10 μM): inhibit markedly the TXA2 formation
Thromboxane B2 (thromboxane B2 formation; conc 0.01 μM): 371 ± 35 ng/mL
Thromboxane B2 (thromboxane B2 formation; conc 0.03 μM): 278 ± 25 ng/mL
Thromboxane B2 (thromboxane B2 formation; conc 0.1 μM): 200 ± 41 ng/mL
Thromboxane B2 (thromboxane B2 formation; conc 0.3 μM): 128 ± 25 ng/mL
Thromboxane B2 (thromboxane B2 formation; conc 1 μM): 69 ± 25 ng/mL
Thromboxane B2 (thromboxane B2 formation; conc 3 μM): 28 ± 10 ng/mL
Thromboxane B2 (thromboxane B2 formation; conc 10 μM): 20 ± 5 ng/mL
cAMP level (cAMP formation; 0.03-10 μM, AA): increase PGE2 and cAMP levels
cAMP (cAMP formation; conc 1 μM): 22 ± 3 pmol/mL
cAMP (cAMP formation; conc 3 μM): 29 ± 3 pmol/mL
cAMP (cAMP formation; conc 10 μM): 35 ± 2 pmol/mL
K+ contraction (%), Tonic (rat thoracic aorta; conc 1 μM): 60.2 ± 1.5%
K+ contraction (%), Tonic (rat thoracic aorta; conc 3 μM): 36.6 ± 4.7%
K+ contraction (%), Tonic (rat thoracic aorta; conc 10 μM): 5.2 ± 2.3%
K+ contraction (%), Tonic (rat thoracic aorta; conc 50 μM): 4.5 ± 3.2%
phasic contractions (rat thoracic aorta; noradrenaline and high potassium (80 mM)): inhibited the phasic contractions
norepinephrine contraction (%), Phrase (phasic) (rat thoracic aorta; conc 3 μM): 121.8 ± 7.2%
norepinephrine contraction (%), Phrase (phasic) (rat thoracic aorta; conc 5 μM): 100.4 ± 9.7%
norepinephrine contraction (%), Phrase (phasic) (rat thoracic aorta; conc 10 μM): 69.3 ± 4.0%
norepinephrine contraction (%), Phrase (phasic) (rat thoracic aorta; conc 50 μM): 65.9 ± 11.3%
norepinephrine contraction (%), Tonic (rat thoracic aorta; conc 3 μM): 90.1 ± 5.5%
norepinephrine contraction (%), Tonic (rat thoracic aorta; conc 5 μM): 77.1 ± 5.7%
norepinephrine contraction (%), Tonic (rat thoracic aorta; conc 10 μM): 27.9 ± 0.5%
norepinephrine contraction (%), Tonic (rat thoracic aorta; conc 50 μM): 14.6 ± 1.5%
antioxidation capability ([1]; 20 μM, compared with α-tocopherol at same concentration): lower than α-tocopherol at the same concentration
Absorbance at 500 nm ([1]; 20 μM, induce time 0, control 0.047): 0.045
Absorbance at 500 nm ([1]; 20 μM, induce time 4, control 0.084): 0.076
Absorbance at 500 nm ([1]; 20 μM, induce time 7, control 0.201): 0.146
Absorbance at 500 nm ([1]; 20 μM, induce time 10, control 0.343): 0.176
Absorbance at 500 nm ([1]; 20 μM, induce time 16): 0.346
Absorbance at 500 nm ([1]; 20 μM, induce time 19): 0.399
Absorbance at 500 nm ([1]; 20 μM, induce time 22): 0.508
Absorbance at 500 nm ([1]; 20 μM, induce time 25): 0.796
Absorbance at 500 nm ([1]; 20 μM, induce time 28): 1.301
inhibitory effect on fatty oil peroxidation ([1]; 40 μM): potential inhibitory effect on fatty oil peroxidation
Absorbance at 500 nm ([1]; 40 μM, induce time 0, control 0.047): 0.037
Absorbance at 500 nm ([1]; 40 μM, induce time 4, control 0.084): 0.056
Absorbance at 500 nm ([1]; 40 μM, induce time 7, control 0.201): 0.082
Absorbance at 500 nm ([1]; 40 μM, induce time 10, control 0.343): 0.116
Absorbance at 500 nm ([1]; 40 μM, induce time 16): 0.156
Absorbance at 500 nm ([1]; 40 μM, induce time 19): 0.204
Absorbance at 500 nm ([1]; 40 μM, induce time 22): 0.256
Absorbance at 500 nm ([1]; 40 μM, induce time 25): 0.282
Absorbance at 500 nm ([1]; 40 μM, induce time 28): 0.349
Absorbance at 500 nm ([1]; 40 μM, induce time 31): 0.405
Absorbance at 500 nm ([1]; 40 μM, induce time 34): 0.453
Absorbance at 500 nm ([1]; 40 μM, induce time 37): 0.525
Absorbance at 500 nm ([1]; 40 μM, induce time 40): 0.687
antioxidation capability versus control ([1]; compared with 0.5% DMSO as control): potential antioxidation capable comparing to 0.5% DMSO as control
